Results on nine compounds are retold here after PubChem BioAssay AID1259411 (Chemical Carcinogenesis Research Information System (CCRIS), 2018).

The structures appear in SMILES notation. The source made the active and inactive calls. The rule behind the calls is not given here.

The test system of this series is rodent carcinogenicity bioassays, tumor incidence. Kind of series: CCRIS carcinogenicity studies. Summed up: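 NCI-built, expert-reviewed records of carcinogenicity and related test outcomes (mutagenicity, tumor promotion/inhibition) compiled from published and report sources, historical span 1985-2011, not updated.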

On to `CCCCCCCCCCCCCC(=O)O[C@@H]1[C@@H](C)[C@@]2(O)[C@@H](C=C(CO)C[C@]3(O)C(=O)C(C)=C[C@@H]23)[C@@H]2C(C)(C)[C@]12OC(C)=O`, for which the carcinogen call reads like this: (Species: MOUSE, Strain/Sex: BALB/MALE, FEMALE, Route: DERMAL, Dose: 0, 18 NMOL IN ACETONE 1/WK FOR 17 MO (STUDY DURATION: 24 MO), Tumor Site: Type of Lesion: SKIN: SQUAMOUS CELL PAPILLOMA) “active; positive”; (Species: MOUSE, Strain/Sex: HR-HR/MALE, FEMALE, Route: DERMAL, Dose: 0, 18 NMOL IN ACETONE 1/WK FOR 18 MO (STUDY DURATION: 24 MO)) “inactive; negative”; (Species: MOUSE, Strain/Sex: HR/HR/MALE, FEMALE, Route: DERMAL, Dose: 0, 20, 40, 100, 1000, 1200, 1394 NMOL TOTAL DOSE WITH RESPECTIVE ADMINISTRATIONS OF 20 NMOL ONCE, 2 NMOL TWICE, 20 NMOL, Dose: 0, 20, 40, 100, 1000, 1200, 1394 NMOL TOTAL DOSE WITH RESPECTIVE ADMINISTRATIONS OF 20 NMOL ONCE, 2 NMOL TWICE, 20 NMOL, Tumor Site: Type of Lesion: SKIN: TUMOR) “active; positive”.

On to `CN(C)c1ccc(C(=O)c2ccc(N(C)C)cc2)cc1`, for which the carcinogen call by setting is: (Species: MOUSE, Strain/Sex: B6C3F1/FEMALE, Route: ORAL, Dose: 0, 1250, 2500 PPM IN DIET, Dose: 0, 1250, 2500 PPM IN DIET, Tumor Site: Type of Lesion: LIVER: HEPATOCELLULAR ADENOMA OR CARCINOMA) “active; positive”; (Species: MOUSE, Strain/Sex: B6C3F1/MALE, Route: ORAL, Dose: 0, 1250, 2500 PPM IN DIET, Dose: 0, 1250, 2500 PPM IN DIET, Tumor Site: Type of Lesion: INTEGUMENTARY SYSTEM (SUBCUTANEOUS TISSUE): HEMANGIOSARCOMA OR HEMANGIOMA) “active; positive”; (Species: RAT, Strain/Sex: F344/FEMALE, Route: ORAL, Dose: 0, 500, 1000 PPM IN DIET, Dose: 0, 500, 1000 PPM IN DIET, Tumor Site: Type of Lesion: LIVER: HEPATOCELLULAR CARCINOMA OR NEOPLASTIC NODULE) “active; positive”; (Species: RAT, Strain/Sex: F344/MALE, Route: ORAL, Dose: 0, 250, 500 PPM IN DIET, Dose: 0, 250, 500 PPM IN DIET, Tumor Site: Type of Lesion: LIVER: HEPATOCELLULAR CARCINOMA OR NEOPLASTIC NODULE) “active; positive”.

With `O=S(=O)(O)c1cc(S(=O)(=O)O)c2c(N=Nc3ccccc3)c(O)ccc2c1`, the carcinogen call is “inactive; negative” (Species: MOUSE, Strain/Sex: B6C3F1/FEMALE, Route: ORAL, Dose: 0, 3000, 6000 PPM IN DIET FOR 103 WK (STUDY DURATION: 104 WK), Dose: 0, 3000, 6000 PPM IN DIET FOR 103 WK (STUDY DURATION: 104 WK)); “inactive; negative” (Species: MOUSE, Strain/Sex: B6C3F1/MALE, Route: ORAL, Dose: 0, 3000, 6000 PPM IN DIET FOR 103 WK (STUDY DURATION: 104 WK), Dose: 0, 3000, 6000 PPM IN DIET FOR 103 WK (STUDY DURATION: 104 WK)); “inactive; negative” (Species: RAT, Strain/Sex: F344/FEMALE, Route: ORAL, Dose: 0, 1000, 3000 PPM IN DIET FOR 103 WK (STUDY DURATION: 104 WK), Dose: 0, 1000, 3000 PPM IN DIET FOR 103 WK (STUDY DURATION: 104 WK)); “inactive; negative” (Species: RAT, Strain/Sex: F344/MALE, Route: ORAL, Dose: 0, 1000, 3000 PPM IN DIET FOR 103 WK (STUDY DURATION: 104 WK), Dose: 0, 1000, 3000 PPM IN DIET FOR 103 WK (STUDY DURATION: 104 WK)).

As to `O[C@H]1[C@@H]2O[C@@H]2c2c(ccc3cc4ccc5ccccc5c4nc23)[C@@H]1O`, the carcinogen call (Species: MOUSE, Strain/Sex: CD-1/FEMALE, Route: INTRAPERITONEAL, Dose: 0, 175 NMOL (TOTAL DOSE) ADMINISTERED AS 1/7 OF DOSE WITHIN 24 HR AFTER BIRTH, 2/7 OF DOSE AT 8 D OLD, 4/7 OF DOSE AT 15, Tumor Site: Type of Lesion: LUNG: TUMOR) is “active; positive” and the carcinogen call (Species: MOUSE, Strain/Sex: CD-1/MALE, Route: INTRAPERITONEAL, Dose: 0, 175 NMOL (TOTAL DOSE) ADMINISTERED AS 1/7 OF DOSE WITHIN 24 HR AFTER BIRTH, 2/7 OF DOSE AT 8 D OLD, 4/7 OF DOSE AT 15, Tumor Site: Type of Lesion: LIVER: TUMOR) was “active; positive”.

For `O[C@H]1[C@H]2O[C@H]2C=C[C@@H]1O`, the carcinogen call (Species: MOUSE, Strain/Sex: SWISS/FEMALE, Route: INTRAPERITONEAL, Dose: 0, 13.7 UMOL ADMINISTERED AS 3 UNEQUAL DOSES (1/7, 2/7, AND 4/7 OF THE TOTAL DOSE) OVER A 2-WK PERIOD (STUDY DURATION: 2, Tumor Site: Type of Lesion: LUNG: ADENOMA) is “active; positive” and the carcinogen call (Species: MOUSE, Strain/Sex: SWISS/MALE, Route: INTRAPERITONEAL, Dose: 0, 13.7 UMOL ADMINISTERED AS 3 UNEQUAL DOSES (1/7, 2/7, AND 4/7 OF THE TOTAL DOSE) OVER A 2-WK PERIOD (STUDY DURATION: 2, Tumor Site: Type of Lesion: LUNG: ADENOMA) is “active; positive”.

Turning to `CC(C)C(C(=O)OC(C#N)c1cccc(Oc2ccccc2)c1)c1ccc(Cl)cc1` (configuration not stated), the carcinogen call reads like this: (Species: MOUSE, Strain/Sex: B6C3F1/FEMALE, Route: ORAL, Dose: 0, 10, 50, 250, 1250 PPM IN THE DIET FOR 2 YR (STUDY DURATION: 2 YR), Dose: 0, 10, 50, 250, 1250 PPM IN THE DIET FOR 2 YR (STUDY DURATION: 2 YR)) “inactive; negative”; (Species: MOUSE, Strain/Sex: B6C3F1/MALE, Route: ORAL, Dose: 0, 10, 50, 250, 1250 PPM IN THE DIET FOR 2 YR (STUDY DURATION: 2 YR), Dose: 0, 10, 50, 250, 1250 PPM IN THE DIET FOR 2 YR (STUDY DURATION: 2 YR)) “inactive; negative”; (Species: MOUSE, Strain/Sex: C57BL/FEMALE, Route: INTRAGASTRIC, Dose: 0, 40, 80 MG/KG IN ARACHIS OIL 5/WK FOR 104 WK (STUDY DURATION: 120 WK), Dose: 0, 40, 80 MG/KG IN ARACHIS OIL 5/WK FOR 104 WK (STUDY DURATION: 120 WK)) “inactive; negative”; (Species: MOUSE, Strain/Sex: C57BL/MALE, Route: INTRAGASTRIC, Dose: 0, 40, 80 MG/KG IN ARACHIS OIL 5/WK FOR 104 WK (STUDY DURATION: 120 WK), Dose: 0, 40, 80 MG/KG IN ARACHIS OIL 5/WK FOR 104 WK (STUDY DURATION: 120 WK)) “inactive; negative”; (Species: RAT, Strain/Sex: SPRAGUE-DAWLEY/MALE,FEMALE, Route: ORAL) “inactive; negative”; (Species: Rat, Strain/Sex: Sprague-Dawley/Male and female (93/Experimental group and 183/Control group), Route: Oral, Dose: 0, 1, 5, 25, 250 ppm in diet for 2 yr, study duration 2 yr, Dose: 0, 1, 5, 25, 250 ppm in diet for 2 yr, study duration 2 yr) “inactive; negative”.

With `O=NN1CCOC1=O`, the carcinogen call (Species: HAMSTER, Strain/Sex: SYRIAN/FEMALE, Route: GAVAGE, Dose: 0, 12 MG/ML ((0.2 ML OF A SOLUTION IN ETHYL ACETATE/CORN OIL (1:2)) 1/WK FOR 30 WK (STUDY DURATION: LIFE SPAN), Tumor Site: Type of Lesion: FORESTOMACH: SQUAMOUS CELL CARCINOMA OR ADENOMA) was “active; positive” and the carcinogen call (Species: RAT, Strain/Sex: F344/FEMALE, Route: INTRAVESICULAR, Dose: 0, 2.4 MG 2/WK FOR 8 WK (STUDY DURATION: LIFETIME), Tumor Site: Type of Lesion: BLADDER: TUMOR) is “active; positive”.

With `FC(F)(F)CCl`, the carcinogen call by setting is: (Species: RAT, Strain/Sex: WISTAR/FEMALE, Route: GAVAGE, Dose: 300 MG/KG IN CORN OIL 5/WK FOR 52 WK, Tumor Site: Type of Lesion: UTERUS: ADENOCARCINOMA) “active; positive”; (Species: RAT, Strain/Sex: WISTAR/MALE, Route: GAVAGE, Dose: 300 MG/KG IN CORN OIL 5/WK FOR 52 WK, Tumor Site: Type of Lesion: TESTES: INTERSTITIAL CELL TUMOR) “active; positive”.

For `O=C1NC(=O)C(=O)C(=O)N1`, the carcinogen call by setting is: (Species: Rat, Strain/Sex: WBN/Kob (Diabetic)/Female (17/group), Route: Intravenous, Dose: 0, 40 mg/kg once, study duration 75 wks, Tumor Site: Type of Lesion: Forestomach: squamous cell carcinoma) “active; positive”; (Species: Rat, Strain/Sex: WBN/Kob (Diabetic)/Male (31/ group), Route: Intravenous, Dose: 0, 50 mg/kg once, study duration 75 wks, Tumor Site: Type of Lesion: Forestomach: squamous cell carcinoma) “active; positive”.
